Test results reported in patent publication US20070155736A1, “FLUORINATED PHNO AND ANALOGUES THEREOF” (Clara Inc., priority 2005, published 2007).
Counter-ions that a name gives are not always drawn.

Columns and labels:
[1] = biological target: T1, high-affinity state of dopamine D2 receptors (Rattus norvegicus, UniProt P61169); assay: Biological potency on the high-affinity state of dopamine D2 receptors in rat homogenized striatal tissue; assay type: binding; settings: [3H]-domperidone
T1 construct: from tissue; host or cells: rat striatum, homogenized
Text: (§1) It is herein submitted that the short-term use of tracer doses of a compound of the invention, wherein R^1 is C1-6alkyl in which one hydrogen atom on the alkyl chain in replaced with radioactive fluoro, in radioimaging procedures will be of diagnostic and therapeutic importance in dopamine-related disorders.

rat cloned D3 receptor = biological target: T2, rat cloned D3 receptor (Rattus norvegicus, UniProt P19020); assay: Binding to rat cloned D3 receptor using 1.6 nM [3H]-raclopride
T2 construct: expressed in transfected cells
Text: as §1

D2^High receptors = D2^High receptors (Homo sapiens, UniProt P14416); settings: human volunteer, PET
Method: After a brief transmission scan for attenuation correction of the emission scans, emission scans are obtained every minute for the first 15 min, and then every 5 min until the end of the study at 75 min. The PET scanning is conducted by using a dedicated brain scanner, GEMS PC2048-15B PET camera (General Electric Medical Systems) that produces fifteen 6.5 mm-thick slices with a resolution of 5-6 mm. The volunteer is scanned lying down and the head fixed by using a thermoplastic face mask. For accurate anatomical position of the various brain regions, each volunteer receives an MRI (magnetic resonance imaging) scan. The regions of interest are transferred to the PET images by using Alice™ 3.1 software.
The regions of interest include the head of the caudate nucleus. […] Several hours after the initial injection of (+)-[^18F]-PHNO, a second injection of (+)-[^18F]-PHNO is given intravenously at the same time as a very low dose of non-radioactive (+)PHNO, (+)-F-PHNO or a very low dose of apomorphine. […] The density of the D2^High sites in the caudate nucleus that are labeled by (+)-[^18F]-PHNO is calculated, knowing the specific activity of the tracer injected and the amount of radioactivity detected by the positron imaging camera.

[2] = in vivo; cited from earlier work

T1 sequence (P61169 whole entry): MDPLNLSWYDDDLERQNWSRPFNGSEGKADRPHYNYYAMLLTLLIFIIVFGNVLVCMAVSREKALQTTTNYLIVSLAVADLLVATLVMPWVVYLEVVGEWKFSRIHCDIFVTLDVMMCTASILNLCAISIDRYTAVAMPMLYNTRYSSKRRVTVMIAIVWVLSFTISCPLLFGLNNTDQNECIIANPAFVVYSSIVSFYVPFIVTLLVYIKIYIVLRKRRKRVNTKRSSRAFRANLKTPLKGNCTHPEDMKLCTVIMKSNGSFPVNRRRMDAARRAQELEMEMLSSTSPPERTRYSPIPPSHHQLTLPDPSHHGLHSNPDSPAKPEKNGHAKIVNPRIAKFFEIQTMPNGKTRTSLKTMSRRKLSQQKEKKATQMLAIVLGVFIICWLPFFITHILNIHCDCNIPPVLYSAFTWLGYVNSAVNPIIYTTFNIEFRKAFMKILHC
T2 sequence (P19020 whole entry): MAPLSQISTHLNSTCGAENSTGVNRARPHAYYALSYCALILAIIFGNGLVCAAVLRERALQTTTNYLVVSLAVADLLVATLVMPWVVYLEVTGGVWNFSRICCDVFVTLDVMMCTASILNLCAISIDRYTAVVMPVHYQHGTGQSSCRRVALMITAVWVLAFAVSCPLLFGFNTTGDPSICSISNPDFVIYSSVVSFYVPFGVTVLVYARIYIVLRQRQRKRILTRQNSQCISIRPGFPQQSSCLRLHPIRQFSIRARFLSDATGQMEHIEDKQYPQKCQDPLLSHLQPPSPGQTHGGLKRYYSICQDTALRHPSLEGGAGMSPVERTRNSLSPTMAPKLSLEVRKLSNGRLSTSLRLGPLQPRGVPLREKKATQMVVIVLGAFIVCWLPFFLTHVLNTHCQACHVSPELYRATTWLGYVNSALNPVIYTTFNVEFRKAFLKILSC
Sequence of D2^High receptors (P14416 whole entry): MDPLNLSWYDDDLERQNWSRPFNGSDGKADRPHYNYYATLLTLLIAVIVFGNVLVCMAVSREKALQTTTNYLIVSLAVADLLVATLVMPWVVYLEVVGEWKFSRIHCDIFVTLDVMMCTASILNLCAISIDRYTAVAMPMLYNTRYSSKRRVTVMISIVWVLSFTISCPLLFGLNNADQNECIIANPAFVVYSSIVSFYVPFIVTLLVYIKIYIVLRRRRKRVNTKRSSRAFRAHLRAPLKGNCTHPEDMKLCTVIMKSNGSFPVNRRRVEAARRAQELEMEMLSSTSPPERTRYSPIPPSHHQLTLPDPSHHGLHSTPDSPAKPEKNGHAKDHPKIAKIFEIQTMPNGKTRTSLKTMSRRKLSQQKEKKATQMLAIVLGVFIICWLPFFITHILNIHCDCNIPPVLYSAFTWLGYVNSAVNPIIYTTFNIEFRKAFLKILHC

| Compound | Kd [1] | Kd (rat cloned D3 receptor) | also measured |
| --- | --- | --- | --- |
| Oc1ccc2c(c1)[C@H]1OCCN(CCCF)[C@@H]1CC2 (as salt: hydrochloride) [(+)-F-PHNO, (4aR,10bR)-4-(3-Fluoropropyl)-3,4,4a,5,6,10b-hexahydro-2H-naphtho[1,2-b][1,4]oxazin-9-ol Hydrochloride] |  |  | melting point: 253 to 255 °C |
| Oc1ccc2c(c1)[C@H]1OCCN(CCCCF)[C@@H]1CC2 [(+)-F-But-HNO, (4aR,10bR)-4-(4-Fluorobutyl)-3,4,4a,5,6,10b-hexahydro-2H-naphtho[1,2-b][1,4]oxazin-9-ol Hydrochloride] | 20 ± 8.7 nM | 34 nM |  |
| Oc1ccc2c(c1)[C@H]1OCCN(CCF)[C@@H]1CC2 [(+)-F-EHNO, (4aR,10bR)-4-(2-Fluoroethyl)-3,4,4a,5,6,10b-hexahydro-2H-naphtho[1,2-b][1,4]oxazin-9-ol Hydrochloride] | 1.7 ± 0.3 nM | 1.7 nM |  |
| Oc1ccc2c(c1)[C@H]1OCCN(CCCCCCF)[C@@H]1CC2 [(+)-F-Hex-HNO, (4aR,10bR)-4-(6-Fluorohexyl)-3,4,4a,5,6,10b-hexahydro-2H-naphtho[1,2-b][1,4]oxazin-9-ol Hydrochloride] | 52 ± 27 nM | 45 nM |  |
| Oc1ccc2c(c1)[C@H]1OCCN(CCCF)[C@@H]1CC2 [(+)-F-PHNO, (4aR,10bR)-4-(3-Fluoropropyl)-3,4,4a,5,6,10b-hexahydro-2H-naphtho[1,2-b][1,4]oxazin-9-ol Hydrochloride] | 0.46 ± 0.06 nM | 0.38 nM |  |
| Oc1ccc2c(c1)[C@H]1OCCN(CCCCCF)[C@@H]1CC2 [(+)-F-Pent-HNO, (4aR,10bR)-4-(5-Fluoropentyl)-3,4,4a,5,6,10b-hexahydro-2H-naphtho[1,2-b][1,4]oxazin-9-ol Hydrochloride] | 25 ± 4 nM | 54 nM |  |
| Oc1ccc2c(c1)[C@H]1OCCN(CCC[18F])[C@@H]1CC2 [(+)-[^18F]-PHNO, [^18F]-(4aR,10bR)-4-(3-fluoropropyl)-3,4,4a,5,6,10b-hexahydro-2H-naphtho[1,2-b][1,4]oxazin-9-ol] |  |  | peak emission in the caudate nucleus (D2^High receptors; at 10 minutes after i.v. injection): about 0.22 % of the injected dose per kg; time of peak emission in the caudate nucleus after intravenous injection (D2^High receptors; bolus plus infusion i.v.): 10 min |
| CCCN1CCO[C@@H]2c3cc(O)ccc3CC[C@H]21.Cl [(+)PHNO, (+)-(4aR,10bR)-3,4,4a,5,6,10b-hexahydro-4-propyl-2H-naphth[1,2-b][1,4]oxazin-9-ol HCl] |  |  | effect in Parkinson's disease [2]: effective in alleviating Parkinson's disease |
